This passage reports IC50 results from US7632678B2, “Cancer stem cells and uses thereof” (The Hospital for Sick Children, priority 2005, dated 2009).

The assay deals with Tumor-initiating cells (NB12). As to the kind of experiment: IC50 determination, alamarBlue cell survival/growth. The assay is classed as cell-based, human. The conditions noted are these: 10 serial dilutions 5 μM to 9 nM. As to the method:
Tumor-initiating cells and normal cells were treated with 10 serial dilutions of compounds (5 μM to 9 nM). […] (FS90=normal cells; NB12=tumor-initiating cells).
Tumor-initiating cells (NB12) and normal cells (FS90) were treated with 10 serial dilutions of compounds ranging from 5 μM to 9 nM. […] IC50 values for NB12 are given above each plot.
IC50 values for NB12 and FS90 are given beside each plot.
For each cell type, cells were passaged 5 days prior to screening.
For orientation: Resazurin is reduced to fluorescent resorufin, in cell work by metabolically active cells.

Take Dequalinium analog, C-14 linker: the IC50 worked out at 1110 nM.

In general, IC50 refers to the concentration needed to halve the response being measured.
